Six compounds from patent publication US12486302B2, “Somatostatin receptor antagonist compounds and methods of using the same” (CDRD VENTURES INC., priority 2016, dated 2025) can be followed below.

The term IC50 denotes the concentration that gives 50% inhibition. The low end stands for inhibition by little substance, the high end for a need for much substance.

Common to all, as to type: cell-based
Holding throughout (settings): agonist challenge at EC80

One assay concerns the target SSTR5 (Homo sapiens, UniProt P35346). The assay is described as follows: PathHunter β-Arrestin assay, antagonist mode, SSTR5. On the procedure: (§1) The PathHunter® β-Arrestin assay monitors the activation of a GPCR in a homogenous, non-imaging assay format using a technology developed by DiscoveRx called Enzyme Fragment Complementation (EFC) with β-galactosidase (β-Gal) as the functional reporter. […] EA is fused to β-Arrestin and […] is fused to the GPCR of interest. When the GPCR is activated and β-Arrestin is recruited to the receptor, ED and EA complementation occurs, restoring β-Gal activity which is measured using chemiluminescent PathHunter® Detection Reagents. For antagonist determination, cells were pre-incubated with the compounds followed by agonist challenge at the EC80 concentration. Data was normalized to the maximal and minimal response observed in the presence of EC80 ligand and vehicle. Compound activity was analyzed using CBIS data analysis suite ChemInnovation, CA). Percentage inhibition was calculated using the following formula: % Inhibition=100%×(1−(mean signal of test sample-mean signal of vehicle control)/(mean signal of EC80 control-mean signal of vehicle control)). Percentage inhibition was calculated at 10 concentrations in steps on a Log 3 scale ranging from […] to 5e-5 μM. The results were plotted for IC50 calculation.

The target in another assay is SSTR3 (Homo sapiens, UniProt P32745). As to the kind of experiment: PathHunter β-Arrestin assay, antagonist mode, SSTR3. The protocol:
as §1

The next assay addresses SSTR4 (Homo sapiens, UniProt P31391). As to the kind of experiment: PathHunter β-Arrestin assay, antagonist mode, SSTR4. On the procedure:
as §1

Assay [1] has as its target somatostatin type 2 (SSTR2) receptors (Homo sapiens, UniProt P30874). As to the kind of experiment: PathHunter β-Arrestin assay, antagonist mode, SSTR2. In short, it runs like this:
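Cells co-expressing PK-tagged human receptor and EA-β-Arrestin were pre-incubated with compound, then challenged with agonist at EC80. β-Gal complementation read by chemiluminescence; % inhibition normalized to EC80 and vehicle controls at 10 concentrations (log 3 steps from 1 μM down to 5e-5 μM), fitted for IC50.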

The next assay concerns the target SSTR1 (Homo sapiens, UniProt P30872). The assay is described as follows: PathHunter β-Arrestin assay, antagonist mode, SSTR1. The protocol: as §1

Where a SMILES comes first, the peptide text is derived from it. Bridges are numbered along the chain shown (N, C = ends). [ ]: non-standard residue; d: D form. dPhe(4-NH2) = Nc1ccc(C[C@@H](N)C(=O)O)cc1; Phe(4-Cl) = N[C@@H](Cc1ccc(Cl)cc1)C(=O)O; dCit = NC(=O)NCCC[C@@H](N)C(=O)O; Cit = NC(=O)NCCC[C@H](N)C(=O)O

SSTR3, sequence (P32745 whole entry): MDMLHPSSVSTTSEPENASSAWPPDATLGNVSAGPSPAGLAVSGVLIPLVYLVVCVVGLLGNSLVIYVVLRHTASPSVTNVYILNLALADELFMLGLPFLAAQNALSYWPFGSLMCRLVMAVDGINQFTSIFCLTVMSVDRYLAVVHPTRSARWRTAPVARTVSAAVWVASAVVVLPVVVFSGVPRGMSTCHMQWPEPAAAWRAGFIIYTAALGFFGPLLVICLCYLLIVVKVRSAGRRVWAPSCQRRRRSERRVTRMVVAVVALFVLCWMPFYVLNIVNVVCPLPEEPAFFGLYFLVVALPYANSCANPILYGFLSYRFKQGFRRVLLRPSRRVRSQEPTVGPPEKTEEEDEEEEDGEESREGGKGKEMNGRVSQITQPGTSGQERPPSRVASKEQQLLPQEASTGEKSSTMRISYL
somatostatin type 2 (SSTR2) receptors, sequence (P30874 whole entry): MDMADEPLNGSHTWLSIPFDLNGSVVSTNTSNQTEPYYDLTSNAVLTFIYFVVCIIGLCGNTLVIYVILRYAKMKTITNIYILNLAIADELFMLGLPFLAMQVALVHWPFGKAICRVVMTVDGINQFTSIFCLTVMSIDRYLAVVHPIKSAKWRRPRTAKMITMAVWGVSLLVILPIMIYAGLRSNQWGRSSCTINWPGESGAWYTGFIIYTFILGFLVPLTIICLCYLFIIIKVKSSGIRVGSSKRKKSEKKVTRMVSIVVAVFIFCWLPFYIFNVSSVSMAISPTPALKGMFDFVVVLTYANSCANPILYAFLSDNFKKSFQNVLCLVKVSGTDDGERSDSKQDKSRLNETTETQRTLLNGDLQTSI
SSTR5, sequence (P35346 whole entry, the tested form may be a part): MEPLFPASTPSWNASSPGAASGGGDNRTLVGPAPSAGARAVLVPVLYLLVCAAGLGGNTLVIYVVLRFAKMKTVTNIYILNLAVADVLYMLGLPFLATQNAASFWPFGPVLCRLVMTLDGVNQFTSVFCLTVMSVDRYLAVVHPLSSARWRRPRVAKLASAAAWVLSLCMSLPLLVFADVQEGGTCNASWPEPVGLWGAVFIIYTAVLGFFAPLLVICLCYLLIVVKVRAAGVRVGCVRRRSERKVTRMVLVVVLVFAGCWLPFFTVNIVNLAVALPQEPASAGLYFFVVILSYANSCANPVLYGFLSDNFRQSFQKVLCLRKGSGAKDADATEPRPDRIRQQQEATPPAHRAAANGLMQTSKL
SSTR1, sequence (P30872 whole entry): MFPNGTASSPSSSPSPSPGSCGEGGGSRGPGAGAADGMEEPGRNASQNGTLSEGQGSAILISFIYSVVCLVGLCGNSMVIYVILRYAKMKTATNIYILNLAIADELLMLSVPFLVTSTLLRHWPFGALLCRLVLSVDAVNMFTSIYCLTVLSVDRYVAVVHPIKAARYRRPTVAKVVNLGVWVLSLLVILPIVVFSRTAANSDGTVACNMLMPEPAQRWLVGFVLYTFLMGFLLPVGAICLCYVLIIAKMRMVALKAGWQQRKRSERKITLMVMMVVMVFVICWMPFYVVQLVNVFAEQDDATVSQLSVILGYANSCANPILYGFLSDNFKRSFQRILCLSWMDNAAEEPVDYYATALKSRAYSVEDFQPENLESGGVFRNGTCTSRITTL
SSTR4, sequence (P31391 whole entry): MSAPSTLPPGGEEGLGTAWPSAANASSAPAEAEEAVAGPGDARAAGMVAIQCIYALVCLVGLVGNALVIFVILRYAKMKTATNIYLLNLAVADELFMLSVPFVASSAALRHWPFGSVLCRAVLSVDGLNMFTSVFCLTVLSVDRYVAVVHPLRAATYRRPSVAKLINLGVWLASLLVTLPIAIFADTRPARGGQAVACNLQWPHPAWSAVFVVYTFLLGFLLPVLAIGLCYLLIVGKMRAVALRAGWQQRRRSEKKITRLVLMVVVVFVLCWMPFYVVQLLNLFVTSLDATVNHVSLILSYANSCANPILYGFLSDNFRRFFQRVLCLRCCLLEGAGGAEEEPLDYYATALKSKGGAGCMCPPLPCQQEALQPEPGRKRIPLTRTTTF

In the case of `C[C@@H](O)[C@@H]1NC(=O)[C@H](CCCCN)NC(=O)[C@@H](CCCNC(N)=O)NC(=O)[C@H](Cc2ccc(O)cc2)NC(=O)[C@H](NC(=O)[C@@H](N)Cc2ccc(Cl)cc2)CSSC[C@@H](C(=O)N[C@H](Cc2ccc(O)cc2)C(N)=O)NC1=O` [Compound 1, H-Cpa-cyclo[D-Cys-Tyr-D-Cit-Lys-Thr-Cys]-D-Tyr-NH2] (H-[Phe(4-Cl)][dC]Y[dCit]KTC[dY]-NH2; disulfide 2-7), the IC50 at SSTR5 was above 1000 nM; on SSTR3, above 1000 nM; at SSTR4 it was above 1000 nM; in assay [1], 34 nM; on SSTR1 it was above 1000 nM.
With `C[C@@H](O)[C@@H]1NC(=O)[C@H](CCCCN)NC(=O)[C@@H](Cc2ccc(NC(=O)[C@@H](N)CC(N)=O)cc2)NC(=O)[C@H](Cc2ccc(O)cc2)NC(=O)[C@H](NC(=O)[C@@H](N)Cc2ccc(Cl)cc2)CSSC[C@@H](C(=O)N[C@H](Cc2ccc(O)cc2)C(N)=O)NC1=O` [Compound 19, H-Cpa-cyclo[DCys- Tyr-D-4-(Asn) Aph-Lys-Thr- Cys]-DTyr-NH2] (H-[Phe(4-Cl)][dC]Y[dPhe(4-NH2)](Asn)KTC[dY]-NH2; disulfide 2-7), the IC50 (at SSTR3; in assay [1]) was above 1000 nM throughout.
On to `C[C@@H](O)[C@@H]1NC(=O)[C@H](CCCCN)NC(=O)[C@@H](Cc2ccc(NC(=O)[C@@H](N)CCC(=O)O)cc2)NC(=O)[C@H](Cc2ccc(O)cc2)NC(=O)[C@H](NC(=O)[C@@H](N)Cc2ccc(Cl)cc2)CSSC[C@@H](C(=O)N[C@H](Cc2ccc(O)cc2)C(N)=O)NC1=O` [Compound 20, H-Cpa-cyclo[DCys- Tyr-D-4-(Glu)Aph- Lys-Thr-Cys]- DTyr-NH2] (H-[Phe(4-Cl)][dC]Y[dPhe(4-NH2)](Glu)KTC[dY]-NH2; disulfide 2-7), for which the IC50 was above 1000 nM at SSTR3 and 924 nM in assay [1].
The corresponding values for `C[C@@H](O)[C@@H]1NC(=O)[C@H](CCCCN)NC(=O)[C@@H](Cc2ccc(NC(=O)[C@@H](N)CCC(N)=O)cc2)NC(=O)[C@H](Cc2ccc(O)cc2)NC(=O)[C@H](NC(=O)[C@@H](N)Cc2ccc(Cl)cc2)CSSC[C@@H](C(=O)N[C@H](Cc2ccc(O)cc2)C(N)=O)NC1=O` [Compound 21, H-Cpa-cyclo[DCys- Tyr-D-4-(Gln)Aph- Lys-Thr-Cys]- DTyr-NH2] (H-[Phe(4-Cl)][dC]Y[dPhe(4-NH2)](Gln)KTC[dY]-NH2; disulfide 2-7) are above 1000 nM and above 1000 nM.
In the same order, the values of `C[C@@H](O)[C@@H]1NC(=O)[C@H](CCCCN)NC(=O)[C@@H](Cc2ccc(NC(=O)[C@@H](N)CCCNC(N)=O)cc2)NC(=O)[C@H](Cc2ccc(O)cc2)NC(=O)[C@H](NC(=O)[C@@H](N)Cc2ccc(Cl)cc2)CSSC[C@@H](C(=O)N[C@H](Cc2ccc(O)cc2)C(N)=O)NC1=O` [Compound 22, H-Cpa-cyclo[DCys- Tyr-D-4-(Cit)Aph- Lys-Thr-Cys]- DTyr-NH2] (H-[Phe(4-Cl)][dC]Y[dPhe(4-NH2)](Cit)KTC[dY]-NH2; disulfide 2-7) are above 1000 nM and 417 nM.
In the same order, the values of `CC(C)[C@H](N)C(=O)Nc1ccc(C[C@H]2NC(=O)[C@H](Cc3ccc(O)cc3)NC(=O)[C@H](NC(=O)[C@@H](N)Cc3ccc(Cl)cc3)CSSC[C@@H](C(=O)N[C@H](Cc3ccc(O)cc3)C(N)=O)NC(=O)[C@H]([C@@H](C)O)NC(=O)[C@H](CCCCN)NC2=O)cc1` [Compound 23, H-Cpa-cyclo[DCys- Tyr-D-4-(Val)Aph- Lys-Thr-Cys]- DTyr-NH2] (H-[Phe(4-Cl)][dC]Y[dPhe(4-NH2)](Val)KTC[dY]-NH2; disulfide 2-7) are above 1000 nM and 458 nM.
